Legend:
[1] = target: T1, HiBit-BRG1 fusion protein (Homo sapiens, UniProt P51532); experiment: HiBiT-BRG1 cell-based degradation assay (Nano-Glo HiBiT Lytic Detection); conditions: stable HeLa cell line expressing HiBit-BRG1 and LgBit, 24 h incubation; for Dmax: top dose 30 μM, read-out: BRG1 HiBit Degradation Maximum (%); for DC50: read-out: BRMG1 HiBit Degradation IC50
T1 construct: expressed in transfected cells
In short: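 Degradation was scored from HiBiT lytic luminescence, scaled between DMSO-treated wells and wells given 2 μM of a standard BRM/BRG1 degrader. Cells were a stable HeLa HiBiT-BRG1/LgBiT line dosed for 24 h, ten concentrations in 3-fold steps from 30 μM, in duplicate.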

HiBit-BRM fusion protein = target: T2, HiBit-BRM fusion protein (Homo sapiens, UniProt P51531); experiment: HiBiT-BRM cell-based degradation assay (Nano-Glo HiBiT Lytic Detection); conditions: stable HeLa cell line expressing HiBiT-BRM, 24 h incubation; for BRM HiBit Degradation Maximum (%): top dose 30 μM; for DC50: read-out: BRM HiBit Degradation IC50
T2 construct: expressed in transfected cells
T2 sequence (P51531 whole entry, the tested form may be a part): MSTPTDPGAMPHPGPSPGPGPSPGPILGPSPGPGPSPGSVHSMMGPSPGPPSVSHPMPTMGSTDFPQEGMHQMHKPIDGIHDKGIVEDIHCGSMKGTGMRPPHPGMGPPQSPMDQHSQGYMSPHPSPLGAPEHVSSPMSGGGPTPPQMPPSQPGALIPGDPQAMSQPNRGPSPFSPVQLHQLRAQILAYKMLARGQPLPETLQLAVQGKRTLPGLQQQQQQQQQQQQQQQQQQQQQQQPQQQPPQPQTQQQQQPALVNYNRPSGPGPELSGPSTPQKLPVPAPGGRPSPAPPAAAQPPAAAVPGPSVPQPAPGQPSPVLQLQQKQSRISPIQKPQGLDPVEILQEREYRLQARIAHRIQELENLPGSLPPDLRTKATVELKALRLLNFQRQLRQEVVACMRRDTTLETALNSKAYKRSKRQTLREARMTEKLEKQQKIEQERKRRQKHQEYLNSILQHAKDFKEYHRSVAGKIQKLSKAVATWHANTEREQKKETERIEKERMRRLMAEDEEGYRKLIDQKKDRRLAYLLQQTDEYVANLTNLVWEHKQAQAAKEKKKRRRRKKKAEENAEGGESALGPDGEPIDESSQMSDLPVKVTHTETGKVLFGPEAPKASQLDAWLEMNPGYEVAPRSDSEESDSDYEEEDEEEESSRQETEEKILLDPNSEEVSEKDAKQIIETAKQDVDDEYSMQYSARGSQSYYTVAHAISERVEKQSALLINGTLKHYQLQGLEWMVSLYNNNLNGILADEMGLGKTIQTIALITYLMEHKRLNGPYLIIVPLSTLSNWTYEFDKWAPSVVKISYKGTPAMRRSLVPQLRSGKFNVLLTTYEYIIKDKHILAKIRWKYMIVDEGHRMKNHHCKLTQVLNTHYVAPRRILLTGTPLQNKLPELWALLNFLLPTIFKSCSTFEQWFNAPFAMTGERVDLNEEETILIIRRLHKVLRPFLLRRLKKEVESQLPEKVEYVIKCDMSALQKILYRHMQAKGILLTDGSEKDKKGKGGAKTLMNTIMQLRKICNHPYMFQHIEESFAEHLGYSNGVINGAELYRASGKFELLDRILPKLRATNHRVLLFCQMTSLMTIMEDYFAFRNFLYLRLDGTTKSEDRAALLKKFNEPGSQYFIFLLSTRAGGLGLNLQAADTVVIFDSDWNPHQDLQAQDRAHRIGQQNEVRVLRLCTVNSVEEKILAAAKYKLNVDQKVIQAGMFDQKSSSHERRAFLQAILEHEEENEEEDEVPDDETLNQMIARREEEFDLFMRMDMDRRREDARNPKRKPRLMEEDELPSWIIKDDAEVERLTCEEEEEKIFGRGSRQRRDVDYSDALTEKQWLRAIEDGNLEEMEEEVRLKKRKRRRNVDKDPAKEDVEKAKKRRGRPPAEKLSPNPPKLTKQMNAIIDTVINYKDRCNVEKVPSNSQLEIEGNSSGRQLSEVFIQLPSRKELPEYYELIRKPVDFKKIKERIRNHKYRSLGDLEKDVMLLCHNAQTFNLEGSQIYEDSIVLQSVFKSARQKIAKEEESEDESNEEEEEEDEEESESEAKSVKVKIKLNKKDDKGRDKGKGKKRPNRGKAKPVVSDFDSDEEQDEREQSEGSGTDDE
In short: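 Stable HiBiT-BRM HeLa line; 24 h compound exposure, top final 30 μM, 3-fold, 10 pts in duplicate. Lytic HiBiT/LgBiT luminescence readout. % degradation vs DMSO (0%) and 2 μM known BRM/BRG1 degrader (100%).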

T1 sequence (P51532 whole entry, the tested form may be a part): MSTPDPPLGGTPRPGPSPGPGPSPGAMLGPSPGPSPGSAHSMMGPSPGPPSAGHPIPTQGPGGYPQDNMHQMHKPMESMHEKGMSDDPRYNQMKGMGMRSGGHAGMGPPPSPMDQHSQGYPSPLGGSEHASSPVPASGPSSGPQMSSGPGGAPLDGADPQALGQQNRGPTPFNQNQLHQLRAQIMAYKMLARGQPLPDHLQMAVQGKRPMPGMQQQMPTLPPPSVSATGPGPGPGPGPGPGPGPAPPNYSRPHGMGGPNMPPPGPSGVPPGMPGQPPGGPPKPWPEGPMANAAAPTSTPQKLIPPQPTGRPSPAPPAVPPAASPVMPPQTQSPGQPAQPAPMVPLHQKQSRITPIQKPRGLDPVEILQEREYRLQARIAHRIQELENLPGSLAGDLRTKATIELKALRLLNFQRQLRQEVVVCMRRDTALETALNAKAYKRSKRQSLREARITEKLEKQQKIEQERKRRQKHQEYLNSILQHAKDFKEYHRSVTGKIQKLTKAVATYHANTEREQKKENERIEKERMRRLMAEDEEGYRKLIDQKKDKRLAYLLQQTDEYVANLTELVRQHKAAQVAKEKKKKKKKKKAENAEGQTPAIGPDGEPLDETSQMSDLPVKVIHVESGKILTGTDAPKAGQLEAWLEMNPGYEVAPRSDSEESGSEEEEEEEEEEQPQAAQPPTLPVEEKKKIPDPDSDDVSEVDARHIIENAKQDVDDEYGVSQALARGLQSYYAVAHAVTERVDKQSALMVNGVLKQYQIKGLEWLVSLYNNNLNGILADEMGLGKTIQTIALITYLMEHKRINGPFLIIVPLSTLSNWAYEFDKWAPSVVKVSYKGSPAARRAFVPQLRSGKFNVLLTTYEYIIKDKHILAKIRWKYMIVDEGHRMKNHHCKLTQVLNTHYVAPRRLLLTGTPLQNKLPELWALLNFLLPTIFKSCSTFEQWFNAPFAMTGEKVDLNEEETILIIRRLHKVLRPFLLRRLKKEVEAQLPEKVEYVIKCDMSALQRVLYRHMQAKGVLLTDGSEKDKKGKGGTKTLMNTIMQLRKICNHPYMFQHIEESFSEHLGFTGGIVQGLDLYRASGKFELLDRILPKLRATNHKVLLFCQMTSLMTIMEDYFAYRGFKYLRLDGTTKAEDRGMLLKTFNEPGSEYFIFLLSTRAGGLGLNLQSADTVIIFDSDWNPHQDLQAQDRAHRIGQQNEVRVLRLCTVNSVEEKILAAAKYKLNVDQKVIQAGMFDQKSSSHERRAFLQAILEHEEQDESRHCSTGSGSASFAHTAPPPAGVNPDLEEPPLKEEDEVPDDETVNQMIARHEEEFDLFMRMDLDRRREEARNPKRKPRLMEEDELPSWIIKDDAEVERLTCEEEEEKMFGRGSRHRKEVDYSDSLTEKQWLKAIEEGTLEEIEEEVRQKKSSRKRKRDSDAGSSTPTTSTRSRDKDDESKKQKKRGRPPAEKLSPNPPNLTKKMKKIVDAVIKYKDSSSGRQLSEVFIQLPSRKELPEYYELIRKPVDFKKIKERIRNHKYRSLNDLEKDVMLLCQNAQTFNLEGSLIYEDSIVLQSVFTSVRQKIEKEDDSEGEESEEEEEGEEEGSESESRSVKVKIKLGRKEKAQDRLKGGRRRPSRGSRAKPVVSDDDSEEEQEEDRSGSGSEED

Compound | Dmax [1] | DC50 [1] | BRM HiBit Degradation Maximum (%) (HiBit-BRM fusion protein) | DC50 (HiBit-BRM fusion protein)
Cc1ncsc1-c1ccc([C@H](C)NC(=O)[C@@H]2C[C@@H](O)CN2C(=O)[C@@H](c2cc(N3CCC(CN4CC(c5cc6nnc(-c7ccccc7O)cc6s5)C4)CC3)no2)C(C)C)cc1 [Compound 103, (2S,4R)-4-hydroxy-1-((R)-2-(3-(4-((3-(3-(2-hydroxyphenyl)thieno[3,2-c]pyridazin-6-yl)azetidin-1-yl)methyl)piperidin-1-yl)isoxazol-5-yl)-3-methylbutanoyl)-N-((S)-1-(4-(4-methylthiazol-5-yl)phenyl)ethyl)pyrrolidine-2-carboxamide] | < 50% | ≥ 1 µM | A (“A” indicates maximum degradation ≥ 75%) | ≥ 0.01 µM
Cc1ncsc1-c1ccc([C@H](C)NC(=O)[C@@H]2C[C@@H](O)CN2C(=O)[C@@H](c2cc(OCCCN3CC(c4cc5nnc(-c6ccccc6O)cc5s4)C3)no2)C(C)C)cc1 [Compound 104, (2S,4R)-4-hydroxy-1-((R)-2-(3-(3-(3-(3-(2-hydroxyphenyl)thieno[3,2-c]pyridazin-6-yl)azetidin-1-yl)propoxy)isoxazol-5-yl)-3-methylbutanoyl)-N-((S)-1-(4-(4-methylthiazol-5-yl)phenyl)ethyl)pyrrolidine-2-carboxamide] | < 50% | ≥ 1 µM | B (“B” indicates maximum degradation ≥ 50%) | ≥ 0.01 µM
Cc1ncsc1-c1ccc([C@H](C)NC(=O)[C@@H]2C[C@@H](O)CN2C(=O)[C@@H](c2cc(N3CCC(N4CC(c5cc6nnc(-c7ccccc7O)cc6s5)C4)CC3)no2)C(C)C)cc1 [Compound 105, (2S,4R)-4-hydroxy-1-((R)-2-(3-(4-(3-(3-(2-hydroxyphenyl)thieno[3,2-c]pyridazin-6-yl)azetidin-1-yl)piperidin-1-yl)isoxazol-5-yl)-3-methylbutanoyl)-N-((S)-1-(4-(4-methylthiazol-5-yl)phenyl)ethyl)pyrrolidine-2-carboxamide] | < 50% | ≥ 1 µM | A (“A” indicates maximum degradation ≥ 75%) | < 0.01 µM
Cc1ncsc1-c1ccc([C@H](C)NC(=O)[C@@H]2C[C@@H](O)CN2C(=O)[C@@H](c2cc(OCC(=O)N3CC(c4cc5nnc(-c6ccccc6O)cc5s4)C3)no2)C(C)C)cc1 [Compound 106, (2S,4R)-4-hydroxy-1-((R)-2-(3-(2-(3-(3-(2-hydroxyphenyl)thieno[3,2-c]pyridazin-6-yl)azetidin-1-yl)-2-oxoethoxy)isoxazol-5-yl)-3-methylbutanoyl)-N-((S)-1-(4-(4-methylthiazol-5-yl)phenyl)ethyl)pyrrolidine-2-carboxamide] | ≥ 50% | ≥ 1 µM | C (“C” indicates maximum degradation < 50%) | ≥ 1 µM
Cc1ncsc1-c1ccc([C@H](C)NC(=O)[C@@H]2C[C@@H](O)CN2C(=O)[C@@H](c2cc(OCCN3CCC(N4CCC(c5sc6nnc(-c7ccccc7O)cc6c5C)CC4)CC3)no2)C(C)C)cc1 [Compound 107, (2S,4R)-4-hydroxy-1-((R)-2-(3-(2-(4-(3-(2-hydroxyphenyl)-5-methylthieno[2,3-c]pyridazin-6-yl)-[1,4′-bipiperidin]-1′-yl)ethoxy)isoxazol-5-yl)-3-methylbutanoyl)-N-((S)-1-(4-(4-methylthiazol-5-yl)phenyl)ethyl)pyrrolidine-2-carboxamide] | < 50% | ≥ 1 µM | A (“A” indicates maximum degradation ≥ 75%) | ≥ 0.01 µM
Cc1ncsc1-c1ccc([C@H](C)NC(=O)[C@@H]2C[C@@H](O)CN2C(=O)[C@@H](c2cc(N3CCC(CN4CC(c5sc6nnc(-c7ccccc7O)cc6c5C)C4)CC3)no2)C(C)C)cc1 [Compound 108, (2S,4R)-4-hydroxy-1-((R)-2-(3-(4-((3-(3-(2-hydroxyphenyl)-5-methylthieno[2,3-c]pyridazin-6-yl)azetidin-1-yl)methyl)piperidin-1-yl)isoxazol-5-yl)-3-methylbutanoyl)-N-((S)-1-(4-(4-methylthiazol-5-yl)phenyl)ethyl)pyrrolidine-2-carboxamide] | < 50% | ≥ 1 µM | A (“A” indicates maximum degradation ≥ 75%) | ≥ 0.01 µM
Cc1ncsc1-c1ccc([C@H](C)NC(=O)[C@@H]2C[C@@H](O)CN2C(=O)[C@@H](c2cc(OCCN3CCc4sc5nnc(-c6ccccc6O)cc5c4C3)no2)C(C)C)cc1 [Compound 109, (2S,4R)-4-hydroxy-1-((R)-2-(3-(2-(3-(2-hydroxyphenyl)-7,8-dihydropyrido[3′,4′:4,5]thieno[2,3-c]pyridazin-6(5H)-yl)ethoxy)isoxazol-5-yl)-3-methylbutanoyl)-N-((S)-1-(4-(4-methylthiazol-5-yl)phenyl)ethyl)pyrrolidine-2-carboxamide] | < 50% | ≥ 1 µM | C (“C” indicates maximum degradation < 50%) | ≥ 1 µM
Cc1ncsc1-c1ccc([C@H](C)NC(=O)[C@@H]2C[C@@H](O)CN2C(=O)[C@@H](c2cc(OCCN3CC(Cc4c(C)sc5nnc(-c6ccccc6O)cc45)C3)no2)C(C)C)cc1 [Compound 110, (2S,4R)-4-hydroxy-1-((R)-2-(3-(2-(3-((3-(2-hydroxyphenyl)-6-methylthieno[2,3-c]pyridazin-5-yl)methyl)azetidin-1-yl)ethoxy)isoxazol-5-yl)-3-methylbutanoyl)-N-((S)-1-(4-(4-methylthiazol-5-yl)phenyl)ethyl)pyrrolidine-2-carboxamide] | < 50% | ≥ 1 µM | B (“B” indicates maximum degradation ≥ 50%) | ≥ 1 µM
Cc1ncsc1-c1ccc([C@H](C)NC(=O)[C@@H]2C[C@@H](O)CN2C(=O)[C@@H](c2cc(OCCN3CC(Cc4csc5nnc(-c6ccccc6O)cc45)C3)no2)C(C)C)cc1 [Compound 111, (2S,4R)-4-hydroxy-1-((R)-2-(3-(2-(3-((3-(2-hydroxyphenyl)thieno[2,3-c]pyridazin-5-yl)methyl)azetidin-1-yl)ethoxy)isoxazol-5-yl)-3-methylbutanoyl)-N-((S)-1-(4-(4-methylthiazol-5-yl)phenyl)ethyl)pyrrolidine-2-carboxamide] | < 50% | ≥ 1 µM | C (“C” indicates maximum degradation < 50%) | ≥ 1 µM
Cc1ncsc1-c1ccc([C@H](C)NC(=O)[C@@H]2C[C@@H](O)CN2C(=O)[C@@H](c2cc(N(C)CCN3CC(c4cc5nnc(-c6ccccc6O)cc5s4)C3)no2)C(C)C)cc1 [Compound 112, (2S,4R)-4-hydroxy-1-((R)-2-(3-((2-(3-(3-(2-hydroxyphenyl)thieno[3,2-c]pyridazin-6-yl)azetidin-1-yl)ethyl)(methyl)amino)isoxazol-5-yl)-3-methylbutanoyl)-N-((S)-1-(4-(4-methylthiazol-5-yl)phenyl)ethyl)pyrrolidine-2-carboxamide] | < 50% | ≥ 1 µM | B (“B” indicates maximum degradation ≥ 50%) | ≥ 0.1 µM
Cc1ncsc1-c1ccc([C@H](C)NC(=O)[C@@H]2C[C@@H](O)CN2C(=O)[C@@H](c2cc(N3CCC(N4CC(c5sc6nnc(-c7ccccc7O)cc6c5C)C4)CC3)no2)C(C)C)cc1 [Compound 113, (2S,4R)-4-hydroxy-1-((R)-2-(3-(4-(3-(3-(2-hydroxyphenyl)-5-methylthieno[2,3-c]pyridazin-6-yl)azetidin-1-yl)piperidin-1-yl)isoxazol-5-yl)-3-methylbutanoyl)-N-((S)-1-(4-(4-methylthiazol-5-yl)phenyl)ethyl)pyrrolidine-2-carboxamide] | < 50% | ≥ 1 µM | A (“A” indicates maximum degradation ≥ 75%) | < 0.01 µM

From US20240376121A1, “COMPOUNDS AND USES THEREOF” (Foghorn Therapeutics Inc., priority 2021, published 2024)
